Data: publication PMC7047876, “Potent Chimeric Antimicrobial Derivatives of the Medicago truncatula NCR247 Symbiotic Peptide” (Frontiers in Microbiology, 2020)
Values after ≈ are worked out from the molar mass of the structure shown. Read-outs that look alike come from different tables or passages of the source. Peptide text beside a SMILES is read from it.

Assays:
Assay type in all cases: cell-based
[1] = test system: Listeria monocytogenes (ATCC 19111); test: microbe, parasite or virus in culture; settings: for MBC: read-out: Minimal bactericidal concentration (MBC) L. m.
Source text: (§1) The pathogenic bacterial strains obtained from the ATCC (United States) and NCTC (National Collection of Type Cultures – England) were the Gram-positive: Enterococcus faecalis (ATCC 29212), Staphylococcus aureus (HNCMO112011), Listeria monocytogenes (ATCC 19111) and the Gram-negative: Pseudomonas aeruginosa (ATCC 27853), Escherichia coli (ATCC 8739), Salmonella enterica (ATCC 13076), Klebsiella pneumoniae (NCTC 13440), Acinetobacter baumannii (ATCC 17978).
(§2) Overnight bacterial cultures grown in LB were diluted and grown to OD600 = 0.2–0.6 at 37°C with shaking. After harvesting and washing bacteria in PPB, the suspensions were adjusted to OD600 = 0.1 corresponding to ∼10^7 bacteria/mL. Antimicrobial activity of the peptides and the antibiotics was determined in PPB in 96 well microplates using 10 μL bacterial suspension and 90 μL of the 2-fold serial dilutions of peptides or antibiotics. Peptides were tested from 25 μM to 0.125 μM whereas the antibiotics; carbenicillin (Cb) from Duchefa Biochemie (Prod.No. C0109.0025) and levofloxacin (Lvx) from Sigma-Aldrich (Prod.No. 28266-10MG-F) from […] to 0.1 μM. The microplates were incubated for 3 h at 37°C with 250 rpm shaking and then 5 μl from each sample was placed on LB agar and the growth of bacteria was monitored after overnight incubation at 37°C. The lowest concentration of the antimicrobial agents, which completely eliminated viable bacteria was the minimal bactericidal concentration (MBC).

[2] = test system: Acinetobacter baumannii (ATCC 17978); test: microbe, parasite or virus in culture; settings: read-out: Minimal bactericidal concentration (MBC) A. b.
Source text: as §1, §2

[3] = test system: Klebsiella pneumoniae (NCTC 13440); test: microbe, parasite or virus in culture; settings: for MBC: read-out: Minimal bactericidal concentration (MBC) K. p.
Source text: as §1, §2

[4] = test system: Enterococcus faecalis (ATCC 29212); test: microbe, parasite or virus in culture; settings: read-out: Minimal bactericidal concentration (MBC) E. f.
Source text: as §1, §2

[5] = test system: Escherichia coli (ATCC 8739); test: microbe, parasite or virus in culture; settings: read-out: Minimal bactericidal concentration (MBC) E. c.
Source text: as §1, §2

[6] = test system: Staphylococcus aureus (HNCMO112011); test: microbe, parasite or virus in culture; settings: read-out: Minimal bactericidal concentration (MBC) S. a.
Source text: as §1, §2

[7] = test system: Pseudomonas aeruginosa (ATCC 27853); test: microbe, parasite or virus in culture; settings: read-out: Minimal bactericidal concentration (MBC) P. a.
Source text: as §1, §2

[8] = test system: Salmonella enterica (ATCC 13076); test: microbe, parasite or virus in culture; settings: read-out: Minimal bactericidal concentration (MBC) S. e.
Source text: as §1, §2

Escherichia coli = settings: for MBC in Mueller Hinton Broth, panel (A), E. c.: 3 h; for MBC in Mueller Hinton Broth, panel (B), E. c. / MIC in Mueller Hinton Broth, panel (C), E. c.: 20 h
Source text: as §1
(§3) Ca^2+ and Mg^2+ can inhibit the antimicrobial activity of cationic peptides, therefore the MBC and MIC values were also determined in MHB, which unlike PPB contains divalent cations and allows growth of bacteria. Bacteria were grown and prepared similarly except that bacteria were resuspended in MHB. 10 μl of bacteria OD600 = 0.1, supplemented with 45 μl MHB and 45 μl of 2-fold dilution series of peptides, were cultivated for 3 and 20 h at 37°C with shaking. Optical density of each sample was measured (Hidex Sense Microplate Reader with Plate Reader Software version 5064) and 5 μl was placed on LB agar plates after 3 and 20 h treatment. The minimal inhibitory concentration (MIC) corresponded to the lowest concentration, which inhibited growth.

Staphylococcus aureus = settings: for MBC in Mueller Hinton Broth, panel (A), S. a.: 3 h; for MBC in Mueller Hinton Broth, panel (B), S. a. / MIC in Mueller Hinton Broth, panel (C), S. a.: 20 h
Source text: as §1, §3

Acinetobacter baumannii = settings: for MBC in Mueller Hinton Broth, panel (A), A. b.: 3 h; for MBC in Mueller Hinton Broth, panel (B), A. b. / MIC in Mueller Hinton Broth, panel (C), A. b.: 20 h
Source text: as §1, §3

[9] = test system: ESKAPE bacteria, L. monocytogenes and S. enterica; test: Antimicrobial activity in PPB, summarised over the tested bacteria; settings: 3 h in PPB; carbenicillin range excludes L. monocytogenes; peptide G range excludes E. faecalis
Source text: as §1, §2

[10] = 3 h treatment in PPB (20 mM potassium-phosphate buffer, pH 7.4), 37°C, then plating on LB agar

Compound	MBC ([1]; ATCC 19111, 3 h, pH 7.4) [µM]	MBC ([2]; ATCC 17978, 3 h, pH 7.4) [µM]	MBC ([4]; ATCC 29212, 3 h, pH 7.4) [µM]	MBC ([5]; ATCC 8739, 3 h, pH 7.4) [µM]	MBC ([6]; HNCMO112011, 3 h, pH 7.4) [µM]	MBC ([7]; ATCC 27853, 3 h, pH 7.4) [µM]	MBC ([8]; ATCC 13076, 3 h, pH 7.4) [µM]	MBC in Mueller Hinton Broth, panel (A), E. c. (Escherichia coli) [µM]	MBC in Mueller Hinton Broth, panel (B), E. c. (Escherichia coli) [µM]	MIC in Mueller Hinton Broth, panel (C), E. c. (Escherichia coli) [µM]	MBC in Mueller Hinton Broth, panel (A), S. a. (Staphylococcus aureus) [µM]	MBC in Mueller Hinton Broth, panel (B), S. a. (Staphylococcus aureus) [µM]	MIC in Mueller Hinton Broth, panel (C), S. a. (Staphylococcus aureus) [µM]	MBC in Mueller Hinton Broth, panel (A), A. b. (Acinetobacter baumannii) [µM]	MBC in Mueller Hinton Broth, panel (B), A. b. (Acinetobacter baumannii) [µM]	MIC in Mueller Hinton Broth, panel (C), A. b. (Acinetobacter baumannii) [µM]	further results
CC[C@H](C)[C@H](NC(=O)[C@H](CS)NC(=O)CNC(=O)[C@H](CC(N)=O)NC(=O)[C@@H](N)CCCNC(=N)N)C(=O)N[C@H](C(=O)N[C@@H](CC(=O)O)C(=O)N1CCC[C@H]1C(=O)N[C@@H](CCCNC(=N)N)C(=O)N[C@@H](CS)C(=O)N1CCC[C@H]1C(=O)N[C@@H](Cc1ccc(O)cc1)C(=O)N[C@@H](CCC(N)=O)C(=O)N[C@@H](CCC(N)=O)C(=O)N[C@@H](CS)C(=O)N[C@@H](CCCNC(=N)N)C(=O)N[C@@H](CCCNC(=N)N)C(=O)N1CCC[C@H]1C(=O)N[C@@H](CC(C)C)C(=O)N[C@@H](Cc1ccc(O)cc1)C(=O)N[C@@H](CS)C(=O)N[C@@H](CCCNC(=N)N)C(=O)N[C@@H](CCCNC(=N)N)C(=O)N[C@@H](CCCNC(=N)N)C(N)=O)C(C)C [A, NCR247] (H-RNGCIVDPRCPYQQCRRPLYCRRR-NH2; N-terminus assumed)	>25	12.5 (≈ 37.6 µg/mL)	>25	6.3 (≈ 19 µg/mL)	6.3 (≈ 19 µg/mL)	3.1 (≈ 9.33 µg/mL)	25 (≈ 75.2 µg/mL)	> 25	>25	25 (≈ 75.2 µg/mL)	> 25	>25	>25	> 25	>25	>25	Minimal bactericidal concentration (MBC) L. m. [1, 10]: resistant at 25 μM; Minimal bactericidal concentration (MBC) K. p. [3, 10]: resistant at 25 μM
CC1(C)S[C@@H]2[C@H](NC(=O)C(C(=O)O)c3ccccc3)C(=O)N2[C@H]1C(=O)O (some centres unmarked) [Cb, carbenicillin, reference compound]																	MBC ([1]; Listeria monocytogenes, ATCC19111, 3 h treatment in PPB (20 mM potassium-phosphate buffer, pH 7.4), 37°C, then plating on LB agar): 80 µM (≈ 30.3 µg/mL); MBC ([2]; Acinetobacter baumannii, ATCC17978, 3 h treatment in PPB (20 mM potassium-phosphate buffer, pH 7.4), 37°C, then plating on LB agar): 5120 µM (≈ 1940 µg/mL); MBC ([3]; Klebsiella pneumoniae, NCTC13440, 3 h treatment in PPB (20 mM potassium-phosphate buffer, pH 7.4), 37°C, then plating on LB agar): > 10200 µM; MBC ([4]; Enterococcus faecalis, ATCC29212, 3 h treatment in PPB (20 mM potassium-phosphate buffer, pH 7.4), 37°C, then plating on LB agar): 5120 µM (≈ 1940 µg/mL); MBC ([5]; Escherichia coli, ATCC8739, 3 h treatment in PPB (20 mM potassium-phosphate buffer, pH 7.4), 37°C, then plating on LB agar): 1280 µM (≈ 484 µg/mL); MBC ([6]; Staphylococcus aureus, 3 h treatment in PPB (20 mM potassium-phosphate buffer, pH 7.4), 37°C, then plating on LB agar): 640 µM (≈ 242 µg/mL); MBC ([7]; Pseudomonas aeruginosa, ATCC27853, 3 h treatment in PPB (20 mM potassium-phosphate buffer, pH 7.4), 37°C, then plating on LB agar): 10200 µM (≈ 3870 µg/mL); MBC ([8]; Salmonella enterica, ATCC13076, 3 h treatment in PPB (20 mM potassium-phosphate buffer, pH 7.4), 37°C, then plating on LB agar): 640 µM (≈ 242 µg/mL); MBC, range over the tested bacteria as summarised in the text [9]: 640 to 10240 µM
CSCC[C@H](NC(=O)[C@H](CCCCN)NC(=O)[C@H](Cc1ccccc1)NC(=O)[C@H](CC(N)=O)NC(=O)[C@H](CC(C)C)NC(=O)[C@@H]1CCCN1C(=O)[C@@H](N)CCCNC(=N)N)C(=O)N[C@@H](CC(C)C)C(=O)N[C@@H](CCCNC(=N)N)C(=O)N[C@@H](Cc1ccccc1)C(=O)N[C@@H](Cc1c[nH]c2ccccc12)C(=O)NCC(=O)N[C@@H](CCC(N)=O)C(=O)N[C@@H](CCC(N)=O)C(=O)N[C@@H](CCC(N)=O)C(=O)N[C@@H](CS)C(=O)N[C@@H](CCCNC(=N)N)C(=O)N[C@@H](CCCNC(=N)N)C(=O)N1CCC[C@H]1C(=O)N[C@@H](CC(C)C)C(=O)N[C@@H](Cc1ccc(O)cc1)C(=O)N[C@@H](CS)C(=O)N[C@@H](CCCNC(=N)N)C(=O)N[C@@H](CCCNC(=N)N)C(=O)N[C@@H](CCCNC(=N)N)C(=O)N[C@@H](Cc1c[nH]c2ccccc12)C(=O)N[C@@H](CO)C(=O)N[C@@H](Cc1c[nH]cn1)C(=O)N1CCC[C@H]1C(=O)N[C@@H](CCC(N)=O)C(=O)N[C@@H](Cc1ccccc1)C(=O)N[C@@H](CCC(=O)O)C(=O)N[C@@H](CCCCN)C(N)=O [E, X1-NCR247C-StrepII] (H-RPLNFKMLRFWGQQQCRRPLYCRRRWSHPQFEK-NH2; N-terminus assumed)	3.1 (≈ 13.5 µg/mL)	3.1 (≈ 13.5 µg/mL)	12.5 (≈ 54.4 µg/mL)	3.1 (≈ 13.5 µg/mL)	3.1 (≈ 13.5 µg/mL)	3.1 (≈ 13.5 µg/mL)	3.1 (≈ 13.5 µg/mL)	25 (≈ 109 µg/mL)	6.3 (≈ 27.4 µg/mL)	6.3 (≈ 27.4 µg/mL)	25 (≈ 109 µg/mL)	6.3 (≈ 27.4 µg/mL)	6.3 (≈ 27.4 µg/mL)	12.5 (≈ 54.4 µg/mL)	6.3 (≈ 27.4 µg/mL)	6.3 (≈ 27.4 µg/mL)	MBC ([3]; NCTC 13440, 3 h, pH 7.4): 6.3 µM (≈ 27.4 µg/mL)
